Patent US5869507A, “Azatyrosine analogues” (Wang; Hui-Po, priority 1997, dated 1999)
“And” between values parts separate entries of the source, which are not always exact repeats. Equal entries are not always repeated. Where two headings read alike, the source gives them in different places.

How the values were obtained:
wild type NIH 3T3 cells = test: Growth inhibition of wild type NIH 3T3 cells (modified MTT assay, 48 h); format: cell-based; conditions: Mus musculus, NIH3T3, mean ± SD of 3-5 experiments
Procedure: (§1) Inhibition on the Growth of wild type and ras-transformed NIH 3T3 cells
(§2) The compounds of formula (I) were screened on wild type and ras-transformedNIH 3T3 cells for inhibitory activity. Screening was carried out in 96-well plate and the cells, with a density of 1500-2500 cells/well, were cultured in Dulbecco's modified Eagle's medium containing 10% fetal bovine serum at 37° C. under an atmosphere of 7.5% CO2 in air. Growth curve for each cell line was established. The DMSO solution of each compound was incubated with the cell for 48 hours. Procedure of Hansen's MTT assay method was modified for estimating the cell number (Hansen, B. M., Nielson, S. E., Berg, K. J. Immunol. Methods 1989, 119, 203.). The absorption of generated formazan's blue at l570 nm was recorded with ELISA reader. The number of surviving cells was determined from a calibration curve derived by correlating the absorption to the cell number determined from a hemacytometer. At least three experiments were carried out for each compound and IC50 was calculated using sigmoidal regression (Parellada, J., Guinea, M. J. Nat. Prod., 1995, 58, 823.). SI, the selectivity of growth inhibition of each test compound, was defined as the ratio of IC50 against wild type to IC50 against ras-transformed cell lines.

[1] = test system: ras-transformed NIH 3T3 cells; test: Growth inhibition of ras-transformed NIH 3T3 cells (modified MTT assay, 48 h); format: cell-based; conditions: for Selective toxicity (SI, IC50 wild type/IC50 ras-transformed): IC50 wild type/IC50 ras-transformed cells; for IC50: Mus musculus, NIH3T3; for Relative activity: Ratio of the IC50 of azatyrosine to the IC50 of test compound
Procedure: as §1, §2

[2] = test system: ras-transformed tumor cells; conditions: relatively high concentrations up to; cited from earlier work
[3] = test system: NIH 3T3 cells transformed by c-Ha-ras, c-Ki-ras, N-ras, or c-raf oncogene; conditions: cited from earlier work
[4] = test system: mice harboring a normal c-Ha-ras gene; conditions: 7,12-dimethylbenz[a]anthracene or methylnitrosourea-induced; cited from earlier work
wild type cells = conditions: cited from earlier work
[5] = test system: revertant clone on nude mice; conditions: some of the revertant clone; cited from earlier work
[6] = ras-transformed NIH 3T3, 48 hours, mean ± SD of 3-5 experiments, read-out: IC50 ras-transformed

Structure (SMILES) | IC50 (wild type NIH 3T3 cells) [µM] | Selective toxicity (SI, IC50 wild type/IC50 ras-transformed) [1] | IC50 [1, 6] [µM] | Relative activity ([1]; ras-transformed NIH 3T3) | Selective toxicity (SI, IC50 wild type/IC50 ras-transformed) ([1]; listed as compound 12) | IC50 ([1]; ras-transformed NIH 3T3, read-out: IC50) [µM] | IC50 fold lower than that of azatyrosine ([1]; ras-transformed NIH 3T3) [fold] | concentration necessary for the activity [2] [mM] | reversion of surviving transformed cells ([3]; azatyrosine-treated transformed cells that survived) | suppression of growth of transformed NIH 3T3 cells [3] | inhibition of induced carcinogenesis [4] | effect on growth of wild type cells (wild type cells) | tumorigenicity of revertant clones [5]
CC(C)(C)OC(=O)NC(Cc1ccc(OCc2ccccc2)cn1)C(N)=O (stereo not drawn) [Compound 7, 3-(5-benzyoxypyridin-2-yl)-2-t-butoxylcarbonylamino NH3] | 1716 ± 10.4 | 23.5 | 73.1 ± 41.8 | 103 |  |  |  |  |  |  |  |  | 
CCCNC(=O)C(Cc1ccc(OCc2ccccc2)cn1)NC(=O)OC(C)(C)C (stereo not drawn) [Compound 8, propyl 3-(5-benzyoxypyridin-2-yl)-2-t-butoxylcarbonylamino propanamide] | 989 ± 707 | 28.4 | 34.1 ± 0.8 | 217 |  |  |  |  |  |  |  |  | 
C=CCNC(=O)C(Cc1ccc(OCc2ccccc2)cn1)NC(=O)OC(C)(C)C (stereo not drawn) [Compound 9] | 213 ± 112 | 2.9 | 74.1 ± 15.2 | 102 |  |  |  |  |  |  |  |  | 
C#CCNC(=O)C(Cc1ccc(OCc2ccccc2)cn1)NC(=O)OC(C)(C)C (stereo not drawn) [Compound 10] | 410 ± 247 | 9.0 | 45.1 ± 1.65 | 165 |  |  |  |  |  |  |  |  | 
CC(C)(C)OC(=O)NC(Cc1ccc(OCc2ccccc2)cn1)C(=O)NC1CC1 (stereo not drawn) [Compound 11] | 1930 ± 899 | 18.4 | 104 ± 83.8 | 72 |  |  |  |  |  |  |  |  | 
CC(C)(C)OC(=O)NC(Cc1ccc(OCc2ccccc2)cn1)C(=O)NC1CCCCC1 (stereo not drawn) [Compound 12, N-cyclohexyl 3-(5-benzyoxypyridin-2-yl)-2-t-butoxylcarbonylaminopropanamide] | 2280 ± 1760 | 138 and 138.5 | 16.1 ± 2.2 | 458 | 138.5 | 16.5 ± 2.2 | 458 |  |  |  |  |  | 
CC(C)(C)OC(=O)NC(Cc1ccc(OCc2ccccc2)cn1)C(=O)N1CCCCC1 (stereo not drawn) [Compound 13] | 74.8 ± 18.7 | 1.8 | 42.1 ± 3.9 | 180 |  |  |  |  |  |  |  |  | 
CC(C)(C)OC(=O)NC(Cc1ccc(OCc2ccccc2)cn1)C(=O)N1CCCC1 (stereo not drawn) [Compound 14] | 148 ± 12.5 | 2.5 | 59.1 ± 17.8 | 127 |  |  |  |  |  |  |  |  | 
CC(C)(C)OC(=O)NC(Cc1ccc(OCc2ccccc2)cn1)C(=O)N1CCSCC1 (stereo not drawn) [Compound 15] | 154 ± 3.9 | 3.1 | 50.1 ± 1.04 | 150 |  |  |  |  |  |  |  |  | 
N[C@@H](Cc1ccc(O)cn1)C(=O)O [azatyrosine, L-b-(5-hydroxy-2-pyridyl)alanine] | 10800 ± 472 | 1.4 | 7550 ± 418 |  |  |  |  | 1 to 2 | reverted to an apparently normal phenotype | suppress the growth | inhibits | essentially no effect | complete loss of tumorigenicity
